In patent US8415351B2 (priority 2007, dated 2013):

What was measured:
[1] = tested on: genotype 1a-H77 subgenomic replicon cell line; assay: microbe, parasite or virus in culture; type: cell-based, HCV; conditions: Hepatitis C virus, read-out: EC50 1a
[2] = tested on: genotype 1b-Con1 subgenomic replicon cell line; assay: microbe, parasite or virus in culture; type: cell-based, HCV; conditions: Hepatitis C virus, read-out: EC50 1b

Structure (SMILES)	EC50 [1] [nM]	EC50 [2] [nM]
COc1c(-c2ccc3cc(NS(C)(=O)=O)ccc3c2)cc(-n2ccc(=O)[nH]c2=O)cc1-c1ccco1 [IB-L0-2.59, N-(6-(5-(2,4-dioxo-3,4-dihydropyrimidin-1(2H)-yl)-3-(furan-2-yl)-2-methoxyphenyl)naphthalen-2-yl)methanesulfonamide]	100 to 1000	10 to 100
COc1c(-c2ccc3cc(NS(C)(=O)=O)ccc3c2)cc(-n2ccc(=O)[nH]c2=O)cc1-c1cccs1 [IB-L0-2.61, N-(6-(5-(2,4-dioxo-3,4-dihydropyrimidin-1(2H)-yl)-2-methoxy-3-(thiophen-2-yl)phenyl)naphthalen-2-yl)methanesulfonamide]	100 to 1000	10 to 100
COc1c(-c2ccoc2)cc(-n2ccc(=O)[nH]c2=O)cc1-c1ccc2cc(NS(C)(=O)=O)ccc2c1 [IB-L0-2.64, N-(6-(5-(2,4-dioxo-3,4-dihydropyrimidin-1(2H)-yl)-3-(furan-3-yl)-2-methoxyphenyl)naphthalen-2-yl)methanesulfonamide]	100 to 1000	< 10
COCC(C)(C)c1cc(-n2ccc(=O)[nH]c2=O)cc(-c2ccc3cc(NS(C)(=O)=O)ccc3c2)c1OC [IB-L0-2.66, N-(6-(5-(2,4-dioxo-3,4-dihydropyrimidin-1(2H)-yl)-2-methoxy-3-(1-methoxy-2-methylpropan-2-yl)phenyl)naphthalen-2-yl)methanesulfonamide]	100 to 1000	10 to 100
COc1c(-c2ccc3cc(NS(C)(=O)=O)ccc3c2)cc(-n2ccc(=O)[nH]c2=O)cc1S(C)(=O)=O [IB-L0-2.68, N-(6-(5-(2,4-dioxo-3,4-dihydropyrimidin-1(2H)-yl)-2-methoxy-3-(methylsulfonyl)phenyl)naphthalen-2-yl)methanesulfonamide]	> 1000	100 to 1000
COc1c(Br)cc(-n2ccc(=O)[nH]c2=O)cc1-c1ccc2cc(NS(C)(=O)=O)ccc2c1 [IB-L0-2.69, N-(6-(3-bromo-5-(2,4-dioxo-3,4-dihydropyrimidin-1(2H)-yl)-2-methoxyphenyl)naphthalen-2-yl)methanesulfonamide]	100 to 1000	10 to 100
COC(=O)C(C)(C)c1cc(-n2ccc(=O)[nH]c2=O)cc(-c2ccc3cc(NS(C)(=O)=O)ccc3c2)c1OC [IB-L0-2.70, methyl 2-(5-(2,4-dioxo-3,4-dihydropyrimidin-1(2H)-yl)-2-methoxy-3-(6-(methylsulfonamido)naphthalen-2-yl)phenyl)-2-methylpropanoate]	> 1000	100 to 1000
COc1c(-c2ccccc2)cc(-n2ccc(=O)[nH]c2=O)cc1-c1ccc2cc(NS(C)(=O)=O)ccc2c1 [IB-L0-2.71, N-(6-(5-(2,4-dioxo-3,4-dihydropyrimidin-1(2H)-yl)-2-methoxy-biphenyl-3-yl)naphthalen-2-yl)methanesulfonamide]	100 to 1000	10 to 100
COC(=O)c1cc(-n2ccc(=O)[nH]c2=O)cc(-c2ccc3cc(NS(C)(=O)=O)ccc3c2)c1OC [IB-L0-2.72, methyl 5-(2,4-dioxo-3,4-dihydropyrimidin-1(2H)-yl)-2-methoxy-3-(6-(methylsulfonamido)naphthalen-2-yl)benzoate]	> 1000	100 to 1000
COc1c(-c2ccc3cc(NS(C)(=O)=O)ccc3c2)cc(-n2ccc(=O)[nH]c2=O)cc1-c1ccc(C)s1 [IB-L0-2.73, N-(6-(5-(2,4-dioxo-3,4-dihydropyrimidin-1(2H)-yl)-2-methoxy-3-(5-methylthiophen-2-yl)phenyl)naphthalen-2-yl)methanesulfonamide]	100 to 1000	100 to 1000
COc1c(-c2cccc(Cl)c2)cc(-n2ccc(=O)[nH]c2=O)cc1-c1ccc2cc(NS(C)(=O)=O)ccc2c1 [IB-L0-2.74, N-(6-(3′-chloro-5-(2,4-dioxo-3,4-dihydropyrimidin-1(2H)-yl)-2-methoxybiphenyl-3-yl)naphthalen-2-yl)methanesulfonamide]	> 1000	100 to 1000
